From ChEMBL document CHEMBL3430912, “GSK Tres Cantos Anti-Kinetoplastid Screening (TCAKS) Data” come the findings set out here.

The subject of data set [1] is Trypanosoma brucei brucei. As to the kind of experiment: GSK_TCAKS: pIC50 Trypanosoma brucei viability assay using luminiscence. Assay plates (1536-well) were prepared. T. brucei cultures were harvested and counted in a CASY cell counter. A parasite suspension was prepared at a final concentration of 5 * 10^4 cells/mL in complete HMI9 medium and 6uL was dispensed to all wells containing compounds using a Multidrop Combi dispenser. 6uL of HMI9 media with 0.4% DMSO were dispensed to control columns. Plates were incubated for 24 h at 37C, 5% CO2 then tempered for 10 min at room temperature. ATP content was quantified by adding 4 uL of CellTiter-Glo Reagent (Promega) according to the manufacturer's instructions. Luminescence was measured using a ViewLux. In kind it is functional, organism-based. The settings on record: Lister 427, CASY. (In general: Cellular ATP, detected with luciferase, serves as a proxy for viable cell number.)

A short description of data set [2]: GSK_TCAKS: pIC50 HepG2 human cell line viability assay using luminiscence. […] Seeding density was checked to ensure that new mono-layers were not more than 50% confluent at the time of harvesting. Cell suspension was added to 500 mL of the same medium at a final density of 1.2 * 10^5 cells/mL. This cell suspension was dispensed (25 uL, 3000 cells per well) into 384-well clear-bottom plates using a Multidrop Combi dispenser. Prior to addition of the cell suspension, the screening compounds (250 nL) were pre-dispensed into the plates with an Echo liquid handler. Plates were incubated for 48 h at 37C, 5% CO2. After incubation, plates equilibrated at room temperature for 30 min before proceeding to develop the luminescent signal. The signal developer, CellTiter-Glo Reagent, was allowed to equilibrate at room temperature for 30 min and added to the plates (25uL per well) using a Multidrop Combi dispenser. Plates were left for 10 min at room temperature for stabilization and then read using a ViewLux. Format: toxicity, cell-based.

In data set [3] the test system is Leishmania donovani. In words: GSK_TCAKS: pIC50 Leishmania donovani Imaging: Amastigotes/Macrophages. Assay plates (384-well) were prepared by adding 250nL of compound to each well. For single shot assay, the final compound concentration was 5 uM. […] Automated image analysis was performed with a script developed on Acapella High Content Imaging and Analysis Software (PerkinElmer). Output: Average number of amastigotes per macrophage cell were reported for each well. The following applies: THP-1. Format: functional, organism-based, Homo sapiens.

Data set [4] has as its system Leishmania donovani. As to the kind of experiment: GSK_TCAKS: pIC50 Leishmania donovani viability assay using fluorescence intensity. Assay plates (1536-well) were prepared by adding 30nL per well of compound. For single shot assay, the final compound concentration was 5uM. […] Briefly, eGFP LdBOB axenic amastigotes were harvested, fixed and counted in a CASY cell counter (Roche-Applied Science). A final concentration of 1.5 * 10^5 cells per well were prepared in amastigote media containing 500 U/mL penicillin/streptomycin (Invitrogen) and 6uL was dispensed to each experimental well using a Multidrop Combi dispenser (Thermo Scientific). 6uL of assay media was dispensed to control columns used as reference for 100% compound response. Following incubation for 72 h at 37C, 5% CO2, 2 uL of resazurin was added to each well at a final concentration of 0.5 mM in phosphate buffered saline (PBS) with IGEPAL (Sigma-Aldrich), 0.05% (v/v). Format: functional, organism-based. On the technique in general: Alamar Blue is a resazurin reagent that responds to reducing activity.

Data set [5] relates to Trypanosoma cruzi. As to the kind of experiment: GSK_TCAKS: pIC50 Trypanosoma cruzi viability assay using beta-GAL activity. This assay was run at single shot at 5uM compound concentration per well. The biological reagents consisted of NIH-3T3 host cells and trypomastigotes parasitic cells; both cell types were set to a 3.3 * 10^5 cells/mL dilution in assay DMEM by means of a CASY cell counter device using a 60um capillary. 6 uL of the mixture were dispensed per well (about 1 * 10^3 host-cells and 1 * 10^3 parasites) with a Multidrop Combi dispenser. […] In all wells, the percentage of DMSO never exceeded 0.5%. Plates incubated for four days at 37C, 5% CO2. The substrate used for the assay fluorescence intensity (FLINT) readout was resorufin-beta-D-galactopiranoside (Sigma-Aldrich) at 5uM per well. It was diluted in PBS supplemented with the soft detergent Igepal (Fluka). The following applies: Tulahuen, NIH3T3. Format: functional, organism-based, Mus musculus.

Data set [6] has as its system Trypanosoma brucei brucei. In words: GSK_TCAKS: pIC50 Trypanosoma brucei viability assay using fluorescence intensity. Assay plates (1536-well) were prepared by dispensing 25nL of compound solution per well using an Echo acoustic dispenser (Labcyte). In kind it is functional, organism-based. The settings on record: Lister 427, 2 h.
For data set [7], the system named is Trypanosoma cruzi. In words: (§1) GSK_TCAKS: pIC50 H2C9 Imaging: H9c2 Host Cardiomyocytes. […] Cells were then washed once with PBS before infection. T. cruzi trypomastigotes, collected at days 5 to 8 after infection from LLC-MK2 parasite infected cultures, were allowed to swim out for 4h at 37C from a centrifuged pellet (2,500 rpm/10 min/room temperature). Trypomastigotes were then collected and counted in a CASY Cell Counter. Trypomastigotes, in supplemented DMEM, were added to H9c2 cultures in a multiplicity of infection of 1 and incubated for 18 h. Cells were washed once with PBS before incubation of the infected H9c2 monolayer with trypsin (Life-Technologies) to detach cells from the flask. Cells were counted in a CASY Cell Counter using a 150 um capillary and their density set at 5 * 10^4 cells per mL in supplemented assay DMEM. Infected H9c2 were dispensed into 384-well poly-lysine coated assay plates at 50uL per well using a Multidrop Combi dispenser. After seeding them, the plates were incubated at 37C, 5% CO2 for 72h. Cultures were then fixed and stained by addition of 50 uL of a solution containing 8% formaldehyde and 4 uM DRAQ5 DNA dye (BioStatus, UK) per well. […] Five images were collected per well for reliable statistical analysis. Automated image analysis was performed with a script developed on Acapella High Content Imaging and Analysis Software (PerkinElmer). Output: Number of H9c2 Host Cardiomyocytes nuclei to determine drug-related cytotoxicity. The following applies: H9c2, 4 h. Format: functional, organism-based, Rattus norvegicus.

Data set [8] concerns Trypanosoma cruzi. Described as §1, with “Trypanosoma cruzi” for “H2C9”, “Infected Cells.” for “H9c2 Host Cardiomyocytes.”, “percentage” for “Number”, “infected cells per well as a second infection marker.” for “H9c2 Host Cardiomyocytes nuclei to determine drug-related cytotoxicity.”. The following applies: H9c2, 4 h. In kind it is functional, organism-based, Rattus norvegicus.

The test system of data set [9] is Leishmania donovani. In words: GSK_TCAKS: pIC50 Leishmania donovani Imaging: THP-1 Host Macrophages. Assay plates (384-well) were prepared by adding 250nL of compound to each well. For single shot assay, the final compound concentration was 5 uM. […] Automated image analysis was performed with a script developed on Acapella High Content Imaging and Analysis Software (PerkinElmer). Output: THP-1 cell count were reported for each well. In kind it is functional, organism-based, Homo sapiens.

In data set [10] the test system is Trypanosoma cruzi. Described as §1, with “Trypanosoma cruzi” for “H2C9”, “Amastigotes/Cell.” for “H9c2 Host Cardiomyocytes.”, “number” for “Number”, “amastigotes per cell as infection level measurement.” for “H9c2 Host Cardiomyocytes nuclei to determine drug-related cytotoxicity.”. Format: functional, organism-based, Rattus norvegicus. The settings on record: H9c2, 4 h.

The target of data set [11] is Sterol 14-alpha demethylase (Trypanosoma cruzi (strain CL Brener), UniProt Q7Z1V1). In words: GSK_TCAKS: pIC50 CYP51 from Trypanosoma cruzi. In kind it is functional.
Data set [12] deals with Leishmania donovani. As to the kind of experiment: GSK_TCAKS: pIC50 Leishmania donovani Imaging: Infected Macrophages. Assay plates (384-well) were prepared by adding 250nL of compound to each well. For single shot assay, the final compound concentration was 5 uM. […] Automated image analysis was performed with a script developed on Acapella High Content Imaging and Analysis Software (PerkinElmer). Output: Percent of infected macrophage cells were reported for each well. In kind it is functional, organism-based, Homo sapiens. The following applies: THP-1.

A word on the IC50: it is the concentration that gives 50% inhibition.

Sterol 14-alpha demethylase, sequence (Q7Z1V1 whole entry): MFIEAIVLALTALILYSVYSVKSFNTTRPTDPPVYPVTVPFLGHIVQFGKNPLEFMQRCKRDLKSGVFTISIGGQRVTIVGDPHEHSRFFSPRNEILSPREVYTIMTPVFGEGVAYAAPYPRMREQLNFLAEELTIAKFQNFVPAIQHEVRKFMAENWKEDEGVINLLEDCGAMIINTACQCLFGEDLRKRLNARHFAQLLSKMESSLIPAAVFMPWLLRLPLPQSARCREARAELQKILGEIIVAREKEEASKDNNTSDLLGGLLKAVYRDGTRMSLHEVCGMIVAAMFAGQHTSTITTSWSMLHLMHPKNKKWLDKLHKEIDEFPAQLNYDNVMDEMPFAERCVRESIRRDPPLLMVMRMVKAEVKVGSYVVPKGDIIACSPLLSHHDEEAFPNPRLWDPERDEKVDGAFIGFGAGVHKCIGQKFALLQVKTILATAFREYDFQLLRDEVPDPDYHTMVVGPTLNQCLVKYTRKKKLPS

For the compound `COc1ccc(C2=NCC(CSc3nnc(-c4ccc5c(c4)OCO5)o3)S2)cc1` (configuration not stated), the IC50 is more than 39.8 µM in [1]; 0.398 µM in [3]; 1 µM in data set [4]; 2.51 µM in [5]; 10 µM in [6]; more than 50.1 µM in data set [7]. Further, the IC50 is 0.501 µM in [8]; more than 50.1 µM in data set [9]; 0.316 µM in [10]; 10 µM in data set [11]; 1 µM in data set [12]. In addition, in data set [2], the half-inhibitory concentration (IC50) at 48 h was more than 100 µM.
Turning to `O=C(c1ccc(Cl)cc1)c1ccc(OC(=O)N2CCOCC2)cc1`, the IC50 in [1] is more than 39.8 µM; in [3], 2 µM; in data set [4], 6.31 µM; in [5] it was 12.6 µM; in data set [6], 7.94 µM; in data set [7], more than 50.1 µM. The IC50 in [8] is more than 50.1 µM; in data set [9] it was more than 50.1 µM; in data set [10] it was 6.31 µM; in data set [11] it was 39.8 µM; in data set [12], 5.01 µM. This compound also gave an IC50 at 48 h in [2] of more than 100 µM.
Turning to `CCc1cccc(CC)c1-n1c(SCC(=O)NC(=O)NCc2ccco2)nnc1-c1cccnc1`, the 50% inhibitory concentration (IC50) in data set [1] was 0.794 µM; in [3] it was more than 50.1 µM; in data set [4], more than 50.1 µM; in data set [5] it was 12.6 µM; in data set [6] it was 0.398 µM; in [7] it was more than 50.1 µM. The IC50 in data set [8] is 12.6 µM; in data set [9], more than 50.1 µM; in data set [10], 7.94 µM; in [11] it was 1 µM; in data set [12] it was more than 50.1 µM. In data set [2], the 50% inhibitory concentration (IC50) at 48 h is more than 100 µM.
With `C[C@@H](Oc1cc(-n2cnc3ccc(CC(O)CO)cc32)sc1C(N)=O)c1ccccc1Cl` (some centres not stated), the IC50 was 0.794 µM in data set [1]; 31.6 µM in data set [3]; 25.1 µM in [4]; 3.16 µM in [5]; 0.631 µM in [6]; 0.126 µM in data set [7]. In addition, the 50% inhibitory concentration (IC50) in data set [8] is 50.1 µM; in data set [9] it was 39.8 µM; in [10], 12.6 µM; in data set [11] it was 25.1 µM; in [12], 39.8 µM. Moreover, the 50% inhibitory concentration (IC50) at 48 h in data set [2] was more than 100 µM.
For `O=C(c1ccccc1)N1CCC(C(=O)N2CCC(Oc3ccccc3Cl)CC2)CC1`, the IC50 in data set [1] was 1 µM; in data set [3] it was 31.6 µM; in data set [4], more than 50.1 µM; in data set [5], 2 µM; in data set [6], 0.501 µM; in [7], more than 50.1 µM. In addition, the half-maximal inhibitory concentration (IC50) in [8] was 31.6 µM; in [9] it was more than 50.1 µM; in [10] it was 25.1 µM; in data set [11], 20 µM; in [12] it was more than 50.1 µM. For the same compound, in data set [2], the IC50 at 48 h is more than 100 µM.
`CCCc1cc(N)nc(-c2cc(CCC)cc(N)n2)c1`: the IC50 was 7.94 µM in [1]; 1.58 µM in data set [3]; 20 µM in data set [4]; 2 µM in [5]; 3.16 µM in [6]; 0.2 µM in data set [7]. Moreover, the half-inhibitory concentration (IC50) in data set [8] was 0.631 µM; in data set [9] it was 20 µM; in [10], 0.501 µM; in data set [11], more than 100 µM; in [12], 2.51 µM. For the same compound, the IC50 at 48 h in data set [2] is 31.6 µM.
